In US20250026773A1, “MONO-P-TOLUENESULFONATE OF AXL KINASE INHIBITOR AND CRYSTAL FORM THEREOF” (NANJING CHIA TAI TIANQING PHARMACEUTICAL CO., LTD., priority 2021, published 2025):

Tests used:
[1] = Physicochemical stability study of crystal forms (XRPD and HPLC)
Description: Use XRPD and HPLC to detect the physical and chemical stability of the samples.

[2] = Solubility in water and various pH media; type: physicochemical; conditions: thermodynamic from solid
[3] = Pharmacokinetic study in ICR mice; type: in vivo; conditions: male, mouse, po, 10 mg·kg^-1 by gavage, plasma
Method: Each compound was prepared into a 10 mg/mL stock solution with DMSO.
Mixed solvent preparation: Tween 80:PEG 400:Water=1:9:90 (v/v/v).
Accurately aspirated 450 μL of DMSO stock solution of the compounds at a concentration of 10 mg/mL to a glass vial, respectively, added an appropriate volume of DMSO and mixed solvent, the ratio of solvent in the final preparation is DMSO:mixed solvent (v/v)=10:90, vortexed (or sonicated), dispersed homogeneously, to obtain the concentration of 1 mg/mL of 4.5 mL of the administered test solution respectively.
Male 6-10 weeks old ICR mice (mouse source: Viton Lever Laboratory Animal Technology Co., Ltd.) were taken, 6 mice in each group, and the mice were fasted overnight and fed 4 hours after drug administration. On the day of the experiment, mice were given 10 mg·kg^−1 of compound test solution by gavage respectively. After the administration of the drug, mice were blood sampled at 0, 5 min, 15 min, 30 min, 1 h, 2 h, 4 h, 8 h, and 24 h from the orbital region of about […], which was placed in EDTA-K2 anticoagulant tubes. […] Plasma concentration was determined by LC-MS/MS method.
Pharmacokinetic parameters were calculated using the non-compartment model in Pharsight Phoenix 7.0, and the results are detailed in the following table.

[4] = After placement, 60° C., 5 days
[5] = After placement, 60° C., 10 days
[6] = After placement, 60° C., 30 days
[7] = After placement, 40° C./75% RH, 5 days
[8] = After placement, 40° C./75% RH, 10 days
[9] = After placement, 40° C./75% RH, 30 days
[10] = After placement, 75% RH, 5 days
[11] = After placement, 75% RH, 10 days
[12] = After placement, 75% RH, 30 days
[13] = After placement, 92.5% RH, 5 days
[14] = After placement, 92.5% RH, 10 days
[15] = After placement, Light, 10 days

In the case of `COCc1ccc(Nc2nc(Nc3ccc4c(c3)CC[C@@H](N3CCCC3)CC4)ncc2Cl)c(P(C)(C)=O)c1` [free base crystal form A, (S)-(2-((5-chloro-2-((7-(pyrrolidin-1-yl)-6,7,8,9-tetrahydro-5H-benzo[7]annulen-2-yl)amino)pyrimidin-4-yl)amino)-5-(methoxymethyl)phenyl)dimethylphosphine oxide], the Crystal form [1, 4] is reported as “Crystal form A”, the Maximum single impurity [1, 4] is reported as “impurity: 0.75 A %” and the Purity [1, 4] is reported as “Purity: 96.39 A %”. The Crystal form [1, 5] was “Crystal form A”, the Maximum single impurity [1, 5] was “impurity: 1.21 A %” and the Purity [1, 5] was “Purity: 94.49 A %”. For the same compound, the Maximum single impurity [1, 6] was “impurity: 2.02 A %”, the Purity [1, 6] was “Purity: 89.65 A %” and the Crystal form ([1]; Before placement) was “Crystal form A”. The Maximum single impurity ([1]; Before placement) was “impurity: 0.05 A %” and the Purity ([1]; Before placement) was “Purity: 99.33 A %”.

Compound `COCc1ccc(Nc2nc(Nc3ccc4c(c3)CC[C@@H](N3CCCC3)CC4)ncc2Cl)c(P(C)(C)=O)c1.Cc1ccc(S(=O)(=O)O)cc1` [crystal form B, mono-p-toluenesulfonate monohydrate of (S)-(2-((5-chloro-2-((7-(pyrrolidin-1-yl)-6,7,8,9-tetrahydro-5H-benzo[7]annulen-2-yl)amino)pyrimidin-4-yl)amino)-5-(methoxymethyl)phenyl)dimethylphosphine oxide] has a solubility ([2]; potassium dihydrogen phosphate/sodium hydroxide buffer, aqueous buffer, pH 6.0, potassium dihydrogen phosphate/sodium hydroxide) of 1900 µg/mL, a solubility ([2]; potassium dihydrogen phosphate/sodium hydroxide buffer, aqueous buffer, pH 6.8, potassium dihydrogen phosphate/sodium hydroxide) of 2100 µg/mL and a solubility ([2]; potassium dihydrogen phosphate/sodium hydroxide buffer, aqueous buffer, pH 7.4, potassium dihydrogen phosphate/sodium hydroxide) of 2100 µg/mL. It also gave a solubility ([2]; simulated gastric fluid, pH 1.0, dilute hydrochloric acid with water) of 87200 µg/mL, a solubility ([2]; simulated gastric fluid, pH 2.0, dilute hydrochloric acid with water) of 4700 µg/mL and a solubility ([2]; sodium acetate trihydrate/glacial acetic acid buffer, aqueous buffer, pH 4.5, sodium acetate trihydrate/glacial acetic acid) of 2000 µg/mL. The solubility ([2]; water) was 1400 µg/mL, the Crystal form [1, 7] was “Crystal form B” and the Maximum single impurity [1, 7] was “Maximum single impurity: 0.04 A %”. The Purity [1, 7] was “Purity: 99.81 A %”, the Crystal form [1, 8] was “Crystal form B” and the Maximum single impurity [1, 8] was “Maximum single impurity: 0.04 A %”. For the same compound, the Purity [1, 8] was “Purity: 99.82 A %”, the Crystal form [1, 9] was “Crystal form B” and the Maximum single impurity [1, 9] was “Maximum single impurity: 0.04 A %”. The Purity [1, 9] was “Purity: 99.81 A %”, the Crystal form [1, 4] was “Crystal form B” and the Maximum single impurity [1, 4] was “Maximum single impurity: 0.04 A %”. For the same compound, the Purity [1, 4] was “Purity: 99.81 A %”, the Crystal form [1, 5] was “Crystal form B” and the Maximum single impurity [1, 5] was “Maximum single impurity: 0.04 A %”. The Purity [1, 5] was “Purity: 99.82 A %”, the Crystal form [1, 6] was “Crystal form B” and the Maximum single impurity [1, 6] was “Maximum single impurity: 0.04 A %”. For the same compound, the Purity [1, 6] was “Purity: 99.80 A %”, the Crystal form [1, 10] was “Crystal form B” and the Maximum single impurity [1, 10] was “Maximum single impurity: 0.04 A %”. For the same compound, the Purity [1, 10] was “Purity: 99.81 A %”, the Crystal form [1, 11] was “Crystal form B” and the Maximum single impurity [1, 11] was “Maximum single impurity: 0.04 A %”. The Purity [1, 11] was “Purity: 99.82 A %”, the Crystal form [1, 12] was “Crystal form B” and the Maximum single impurity [1, 12] was “Maximum single impurity: 0.04 A %”. The Purity [1, 12] was “Purity: 99.80 A %”, the Crystal form [1, 13] was “Crystal form B” and the Maximum single impurity [1, 13] was “Maximum single impurity: 0.04 A %”. For the same compound, the Purity [1, 13] was “Purity: 99.81 A %”, the Crystal form [1, 14] was “Crystal form B” and the Maximum single impurity [1, 14] was “Maximum single impurity: 0.04 A %”. For the same compound, the Purity [1, 14] was “Purity: 99.82 A %”, the Crystal form ([1]; After placement, Light, 5 days) was “Crystal form B” and the Maximum single impurity ([1]; After placement, Light, 5 days) was “Maximum single impurity: 0.05 A %”. The Purity ([1]; After placement, Light, 5 days) was “Purity: 99.67 A %”, the Crystal form [1, 15] was “Crystal form B” and the Maximum single impurity [1, 15] was “Maximum single impurity: 0.10 A %”. The Purity [1, 15] was “Purity: 99.60 A %”, the Crystal form ([1]; Before placement) was “Crystal form B” and the Maximum single impurity ([1]; Before placement) was “impurity: 0.04 A %”. For the same compound, the Purity ([1]; Before placement) was “Purity: 99.81 A %”.

`CN1CCN(Cc2ccc(Nc3ncc(Cl)c(Nc4ccccc4S(=O)(=O)N(C)C)n3)cc2)CC1` [Positive drug 2 (TP0903), reference compound] gave a half-life [3] of 1.2 h.

`COCc1ccc(Nc2nc(Nc3ccc4c(c3)CC[C@@H](N3CCCC3)CC4)ncc2Cl)c(P(C)(C)=O)c1` [Example 1, (S)-(2-((5-chloro-2-((7-(pyrrolidin-1-yl)-6,7,8,9-tetrahydro-5H-benzo[7]annulen-2-yl)amino)pyrimidin-4-yl)amino)-5-(methoxymethyl)phenyl)dimethylphosphine oxide] showed a half-life [3] of 1.35 h.
